Experimental data as given in ChEMBL document CHEMBL1201862, “PubChem BioAssay data set” (2004).
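96-well plates; 48 h exposure; 5 concentrations. Endpoints by linear interpolation between flanking doses. Not reached: highest tested concentration assigned. GI50: concentration for 50% inhibition of growth.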 Activity calls are given as the source filed them. Rule as the data show it: active = GI50 up to about 1.1 µM and inactive = higher.

Tests used:
Assay in all cases: NCI-60 cell line screen, 48 h
U-251 = tested on: U-251
SK-OV-3 = tested on: SK-OV-3
SNB-75 = tested on: SNB-75
NCI-H522 = tested on: NCI-H522
A549 = tested on: A549
MCF7 = tested on: MCF7
SF-295 = tested on: SF-295
LOX IMVI = tested on: LOX IMVI
SK-MEL-28 = tested on: SK-MEL-28
SNB-19 = tested on: SNB-19
RXF 393 = tested on: RXF 393
HL-60 = tested on: HL-60
NCI-H23 = tested on: NCI-H23
A498 = tested on: A498
DU-145 = tested on: DU-145
K562 = tested on: K562
PC-3 = tested on: PC-3
SF-268 = tested on: SF-268
EKVX = tested on: EKVX
MDA-MB-231 = tested on: MDA-MB-231
NCI/ADR-RES = tested on: NCI/ADR-RES
HCT-116 = tested on: HCT-116
M14 = tested on: M14
T47D = tested on: T47D
MOLT-4 = tested on: MOLT-4
TK-10 = tested on: TK-10
SF-539 = tested on: SF-539
HOP-92 = tested on: HOP-92
OVCAR-3 = tested on: OVCAR-3
BT-549 = tested on: BT-549
SK-MEL-5 = tested on: SK-MEL-5
SW-620 = tested on: SW-620
UACC-257 = tested on: UACC-257
MDA-N = tested on: MDA-N
COLO 205 = tested on: COLO 205
HCC 2998 = tested on: HCC 2998
IGROV-1 = tested on: IGROV-1
HCT-15 = tested on: HCT-15
786-0 = tested on: 786-0
NCI-H226 = tested on: NCI-H226
UACC-62 = tested on: UACC-62
SN12C = tested on: SN12C
OVCAR-5 = tested on: OVCAR-5
KM12 = tested on: KM12
OVCAR-4 = tested on: OVCAR-4
ACHN = tested on: ACHN
HT-29 = tested on: HT-29
SK-MEL-2 = tested on: SK-MEL-2
Malme-3M = tested on: Malme-3M
UO-31 = tested on: UO-31
MDA-MB-435 = tested on: MDA-MB-435
OVCAR-8 = tested on: OVCAR-8
HOP-62 = tested on: HOP-62
NCI-H460 = tested on: NCI-H460
CAKI-1 = tested on: CAKI-1
Hs-578T = tested on: Hs-578T
CCRF-CEM = tested on: CCRF-CEM
SR = tested on: SR
RPMI-8226 = tested on: RPMI-8226

In the case of CN(CCNC(=O)c1nn(C)c2c1Cc1ccccc1-2)CCNC(=O)c1nn(C)c2c1Cc1ccccc1-2, the GI50 (U-251) is reported as 15.6 µM (inactive), the GI50 (SK-OV-3) is reported as 18.2 µM (inactive) and the GI50 (SNB-75) is reported as 14.4 µM (inactive). For the same molecule, the GI50 (NCI-H522) was 16.2 µM (inactive), the GI50 (A549) was 15.8 µM (inactive) and the GI50 (MCF7) was 11.1 µM (inactive). The GI50 (SF-295) was 16 µM (inactive), the GI50 (LOX IMVI) was 16.4 µM (inactive) and the GI50 (SK-MEL-28) was 16.1 µM (inactive). For the same molecule, the GI50 (SNB-19) was 15.6 µM (inactive), the GI50 (RXF 393) was 14.8 µM (inactive) and the GI50 (HL-60) was 12.9 µM (inactive). For the same molecule, the GI50 (NCI-H23) was 15.4 µM (inactive), the GI50 (A498) was 15.2 µM (inactive) and the GI50 (DU-145) was 17.9 µM (inactive). For the same molecule, the GI50 (K562) was 12.7 µM (inactive), the GI50 (PC-3) was 18.4 µM (inactive) and the GI50 (SF-268) was 14.7 µM (inactive). The GI50 (EKVX) was 23.2 µM (inactive), the GI50 (MDA-MB-231) was 19 µM (inactive) and the GI50 (NCI/ADR-RES) was 21.4 µM (inactive). The GI50 (HCT-116) was 15.1 µM (inactive), the GI50 (M14) was 12.6 µM (inactive) and the GI50 (T47D) was 22.5 µM (inactive). For the same molecule, the GI50 (MOLT-4) was 12.4 µM (inactive), the GI50 (TK-10) was 15.7 µM (inactive) and the GI50 (SF-539) was 14.3 µM (inactive). The GI50 (HOP-92) was 12.9 µM (inactive), the GI50 (OVCAR-3) was 11.4 µM (inactive) and the GI50 (BT-549) was 16.2 µM (inactive). For the same molecule, the GI50 (SK-MEL-5) was 12.1 µM (inactive), the GI50 (SW-620) was 18.7 µM (inactive) and the GI50 (UACC-257) was 14 µM (inactive). The GI50 (MDA-N) was 14.5 µM (inactive), the GI50 (COLO 205) was 11.9 µM (inactive) and the GI50 (HCC 2998) was 12.5 µM (inactive). For the same molecule, the GI50 (IGROV-1) was 8.55 µM (inactive), the GI50 (HCT-15) was 16.7 µM and the GI50 (786-0) was 14.5 µM (inactive). For the same molecule, the GI50 (NCI-H226) was 18.3 µM (inactive), the GI50 (UACC-62) was 15.2 µM (inactive) and the GI50 (SN12C) was 14.9 µM (inactive). For the same molecule, the GI50 (OVCAR-5) was 26.8 µM (inactive), the GI50 (KM12) was 19.1 µM (inactive) and the GI50 (OVCAR-4) was 17.6 µM (inactive). For the same molecule, the GI50 (ACHN) was 14.5 µM (inactive), the GI50 (HT-29) was 14 µM (inactive) and the GI50 (SK-MEL-2) was 14.7 µM (inactive). The GI50 (Malme-3M) was 16.3 µM (inactive), the GI50 (UO-31) was 10.4 µM (inactive) and the GI50 (MDA-MB-435) was 15.2 µM (inactive). For the same molecule, the GI50 (OVCAR-8) was 17.5 µM (inactive), the GI50 (HOP-62) was 15.4 µM (inactive) and the GI50 (NCI-H460) was 16.4 µM (inactive). The GI50 (CAKI-1) was 18.4 µM (inactive).

In the case of COc1cc2c3c(c1)CCCN3CCC2, the GI50 (U-251) is reported as > 10 µM (inactive), the GI50 (SK-OV-3) is reported as > 10 µM (inactive) and the GI50 (SNB-75) is reported as > 10 µM (inactive). For the same molecule, the GI50 (NCI-H522) was > 10 µM (inactive), the GI50 (A549) was > 10 µM (inactive) and the GI50 (MCF7) was > 10 µM (inactive). The GI50 (SF-295) was > 10 µM (inactive), the GI50 (LOX IMVI) was > 10 µM (inactive) and the GI50 (SK-MEL-28) was > 10 µM (inactive). For the same molecule, the GI50 (Hs-578T) was > 10 µM (inactive), the GI50 (SNB-19) was > 10 µM (inactive) and the GI50 (CCRF-CEM) was > 10 µM (inactive). For the same molecule, the GI50 (RXF 393) was > 10 µM (inactive), the GI50 (HL-60) was > 10 µM (inactive) and the GI50 (NCI-H23) was > 10 µM (inactive). The GI50 (A498) was > 10 µM (inactive), the GI50 (DU-145) was > 10 µM (inactive) and the GI50 (K562) was > 10 µM (inactive). For the same molecule, the GI50 (PC-3) was > 10 µM (inactive), the GI50 (SR) was > 10 µM (inactive) and the GI50 (SF-268) was > 10 µM (inactive). The GI50 (EKVX) was > 10 µM (inactive), the GI50 (MDA-MB-231) was > 10 µM (inactive) and the GI50 (NCI/ADR-RES) was > 10 µM (inactive). For the same molecule, the GI50 (HCT-116) was > 10 µM (inactive), the GI50 (RPMI-8226) was > 10 µM (inactive) and the GI50 (M14) was > 10 µM (inactive). The GI50 (T47D) was > 10 µM (inactive), the GI50 (MOLT-4) was > 10 µM (inactive) and the GI50 (TK-10) was > 10 µM (inactive). For the same molecule, the GI50 (SF-539) was > 10 µM (inactive), the GI50 (HOP-92) was > 10 µM (inactive) and the GI50 (OVCAR-3) was > 10 µM (inactive). For the same molecule, the GI50 (SK-MEL-5) was > 10 µM (inactive), the GI50 (SW-620) was > 10 µM (inactive) and the GI50 (UACC-257) was > 10 µM (inactive). For the same molecule, the GI50 (MDA-N) was > 10 µM (inactive), the GI50 (COLO 205) was > 10 µM (inactive) and the GI50 (HCC 2998) was > 10 µM (inactive). For the same molecule, the GI50 (IGROV-1) was > 10 µM (inactive), the GI50 (HCT-15) was greater than 10 µM and the GI50 (786-0) was > 10 µM (inactive). The GI50 (NCI-H226) was > 10 µM (inactive), the GI50 (UACC-62) was > 10 µM (inactive) and the GI50 (SN12C) was > 10 µM (inactive). For the same molecule, the GI50 (KM12) was > 10 µM (inactive), the GI50 (OVCAR-4) was > 10 µM (inactive) and the GI50 (ACHN) was > 10 µM (inactive). The GI50 (HT-29) was > 10 µM (inactive), the GI50 (SK-MEL-2) was > 10 µM (inactive) and the GI50 (Malme-3M) was > 10 µM (inactive). For the same molecule, the GI50 (UO-31) was > 10 µM (inactive), the GI50 (MDA-MB-435) was > 10 µM (inactive) and the GI50 (OVCAR-8) was > 10 µM (inactive). For the same molecule, the GI50 (HOP-62) was > 10 µM (inactive), the GI50 (NCI-H460) was > 10 µM (inactive) and the GI50 (CAKI-1) was > 10 µM (inactive).
